pKi: −log10 of the molar value.

Results on five molecules are retold here after patent US8937073B2, “Disubstituted tetrahydrofuranyl compounds and their use as B1-receptor antagonists” (Boehringer Ingelheim International GmbH, priority 2010, dated 2015).

The target in the test is T1, cynomolgus B1 receptor (Macaca fascicularis, UniProt Q3BCU0).
T1 construct: expressed in transfected cells; host or cells: CHO cells
T1 sequence (Q3BCU0 1-352): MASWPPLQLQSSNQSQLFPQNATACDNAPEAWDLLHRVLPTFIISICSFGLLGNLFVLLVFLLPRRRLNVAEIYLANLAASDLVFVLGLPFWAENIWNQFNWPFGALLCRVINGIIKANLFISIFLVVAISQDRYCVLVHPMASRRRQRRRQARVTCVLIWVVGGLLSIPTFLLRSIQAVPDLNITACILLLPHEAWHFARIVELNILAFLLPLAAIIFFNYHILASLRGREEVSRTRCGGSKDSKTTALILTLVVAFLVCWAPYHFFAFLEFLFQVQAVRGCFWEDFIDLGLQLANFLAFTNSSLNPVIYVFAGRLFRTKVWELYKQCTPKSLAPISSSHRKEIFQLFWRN
Nature of the test: cynoBK1-receptor binding assay. The note with it: homogenate of CHO cells expressing the cynomolgus B1 receptor; radioligand 0.5 to 5.0 nM kallidine (DesArg10,Leu9), [3,4-Prolyl-3,43H(N)]; 60-180 minutes at ambient temperature. Here is the method:
Description of the Method of Binding the cynoBK1-Receptor
CHO cells that express the cynomolgus B1 receptor are cultivated in “HAM′S F-12 Medium”. The medium is removed from confluent cultures, the cells are washed with PBS buffer, scraped off or detached using Versene and isolated by centrifuging. Then the cells are homogenised in suspension, the homogenate is centrifuged and resuspended. After the protein content has been determined 200 μl of the homogenate (50 to 250 μg protein/assay) are incubated for 60-180 minutes at ambient temperature with 0.5 to 5.0 nM kallidine (DesArg10,Leu9), [3,4-Prolyl-3,43H(N)] and increasing concentrations of the test substance in a total volume of 250 μl. The incubation is stopped by rapid filtration through GF/B glass fibre filters that have been pre-treated with polyethyleneimine (0.3%). The radioactivity bound to the protein is measured with a TopCount NXT. The radioactivity bound in the presence of 1.0 μM kallidine (DesArg10) is defined as non-specific binding. The concentration binding curve may be analysed using computer-aided non-linear curve fitting to determine the corresponding Ki value for the test substance.
Test Results of the cynoBK1-Receptor Binding Assay: […]

On to “(S)-5-amino-N-{3-[4-(4-methoxy-2-trifluoromethyl-phenylamino)-benzylcarbamoyl]-tetrahydrofuran-3-yl}-nicotinamide [Example 4]”, for which the pKi was 8.44.

As to “(S)-5-amino-N-(3-{[3-fluoro-5-(4-methoxy-2-trifluoromethyl-phenylamino)-pyridin-2-ylmethyl]-carbamoyl}-tetrahydrofuran-3-yl)-nicotinamide [Example 3]”, the pKi was 8.33. The pKi values of the last two molecules are within 0.2 log units of each other.

`COc1ccc(Nc2ccc(CNC(=O)[C@]3(NC(=O)c4cn[nH]c(=O)c4)CCOC3)c(F)c2)c(C(F)(F)F)c1` [Example 21] gave a pKi of 8.80.

Regarding “(S)-5-amino-N-(3-{[3-chloro-5-(4-methoxy-2-trifluoromethyl-phenylamino)-pyridin-2-yl-methyl]-carbamoyl}-tetrahydrofuran-3-yl)-nicotinamide [Example 6]”, the pKi is 7.74.

In the case of “(S)-6-oxo-1,6-dihydro-pyridazine-4-carboxylic acid-{3-[2-fluoro-4-(4-methoxy-2-trifluoromethyl-phenylamino)-benzylcarbamoyl]-tetrahydrofuran-3-yl}-amide [Example 1]”, the pKi is 9.00.
